Data: PubChem BioAssay AID1259407 (Chemical Carcinogenesis Research Information System (CCRIS), 2018)
Active and inactive are the calls of the source. How the calls were made is not given here.

System: CCRIS mutagenicity, Ames/micronucleus/aberration tests
Test: CCRIS mutagenicity studies

## CCCl
Test System: AMES SALMONELLA TYPHIMURIUM, Strain/Indicator: TA98, Metabolic Activation: NONE, Method: DESICCATOR
  mutagenic call: inactive; negative
Test System: AMES SALMONELLA TYPHIMURIUM, Strain/Indicator: TA98, Metabolic Activation: NONE, Method: GAS EXPOSURE
  mutagenic call: inactive; negative
Test System: AMES SALMONELLA TYPHIMURIUM, Strain/Indicator: TA98, Metabolic Activation: RAT LIVER S-9, PHENOBARBITAL AND BETA-NAPHTHOFLAVONE, Method: GAS EXPOSURE
  mutagenic call: inactive; negative
Test System: AMES SALMONELLA TYPHIMURIUM, Strain/Indicator: TA98, Metabolic Activation: RAT, LIVER, S-9, AROCLOR 1254 (30%), Method: DESICCATOR
  mutagenic call: inactive; negative
Test System: AMES SALMONELLA TYPHIMURIUM, Strain/Indicator: TA98, Metabolic Activation: RAT, LIVER, S-9, PHENOBARBITAL AND 5,6-BENZOFLAVONE, Method: GAS EXPOSURE
  mutagenic call: inactive; negative
Test System: AMES SALMONELLA TYPHIMURIUM, Strain/Indicator: TA100, Metabolic Activation: HAMSTER, LIVER, S-9, AROCLOR 1254 (30%), Method: DESICCATOR
  mutagenic call: inactive; negative
Test System: AMES SALMONELLA TYPHIMURIUM, Strain/Indicator: TA100, Metabolic Activation: NONE, Method: DESICCATOR
  mutagenic call: inactive; negative
Test System: AMES SALMONELLA TYPHIMURIUM, Strain/Indicator: TA100, Metabolic Activation: NONE, Method: GAS EXPOSURE
  mutagenic call: active; positive
Test System: AMES SALMONELLA TYPHIMURIUM, Strain/Indicator: TA100, Metabolic Activation: RAT LIVER S-9, PHENOBARBITAL AND BETA-NAPHTHOFLAVONE, Method: GAS EXPOSURE
  mutagenic call: active; positive
Test System: AMES SALMONELLA TYPHIMURIUM, Strain/Indicator: TA100, Metabolic Activation: RAT, LIVER, S-9, PCB, Method: GAS EXPOSURE
  mutagenic call: inactive; negative
Test System: AMES SALMONELLA TYPHIMURIUM, Strain/Indicator: TA100, Metabolic Activation: RAT, LIVER, S-9, PHENOBARBITAL AND 5,6-BENZOFLAVONE, Method: GAS EXPOSURE
  mutagenic call: active; positive
Test System: AMES SALMONELLA TYPHIMURIUM, Strain/Indicator: TA1535, Metabolic Activation: HAMSTER, LIVER, S-9, AROCLOR 1254 (30%), Method: DESICCATOR
  mutagenic call: active; positive
Test System: AMES SALMONELLA TYPHIMURIUM, Strain/Indicator: TA1535, Metabolic Activation: NONE, Method: DESICCATOR
  mutagenic call: active; positive
Test System: AMES SALMONELLA TYPHIMURIUM, Strain/Indicator: TA1535, Metabolic Activation: NONE, Method: GAS EXPOSURE
  mutagenic call: active; positive
Test System: AMES SALMONELLA TYPHIMURIUM, Strain/Indicator: TA1535, Metabolic Activation: RAT LIVER S-9, PHENOBARBITAL AND BETA-NAPHTHOFLAVONE, Method: GAS EXPOSURE
  mutagenic call: active; positive
Test System: AMES SALMONELLA TYPHIMURIUM, Strain/Indicator: TA1535, Metabolic Activation: RAT, LIVER, S-9, AROCLOR 1254 (30%), Method: DESICCATOR
  mutagenic call: active; positive
Test System: AMES SALMONELLA TYPHIMURIUM, Strain/Indicator: TA1535, Metabolic Activation: RAT, LIVER, S-9, PHENOBARBITAL AND 5,6-BENZOFLAVONE, Method: GAS EXPOSURE
  mutagenic call: active; positive
Test System: AMES SALMONELLA TYPHIMURIUM, Strain/Indicator: TA1537, Metabolic Activation: NONE, Method: GAS EXPOSURE
  mutagenic call: inactive; negative
Test System: AMES SALMONELLA TYPHIMURIUM, Strain/Indicator: TA1537, Metabolic Activation: RAT LIVER S-9, PHENOBARBITAL AND BETA-NAPHTHOFLAVONE, Method: GAS EXPOSURE
  mutagenic call: inactive; negative
Test System: AMES SALMONELLA TYPHIMURIUM, Strain/Indicator: TA1537, Metabolic Activation: RAT, LIVER, S-9, PHENOBARBITAL AND 5,6-BENZOFLAVONE, Method: GAS EXPOSURE
  mutagenic call: inactive; negative
Test System: CHINESE HAMSTER OVARY, Strain/Indicator: CHO-K1 (HPRT)/6-THIOGUANINE, Metabolic Activation: NONE
  mutagenic call: active; positive
Test System: CHINESE HAMSTER OVARY, Strain/Indicator: CHO-K1 (HPRT)/6-THIOGUANINE, Metabolic Activation: RAT, LIVER, S-9, AROCLOR 1254
  mutagenic call: active; positive
Test System: E. COLI, Strain/Indicator: WP2 UVRA (PKM101), Metabolic Activation: RAT, LIVER, S-9, PCB, Method: GAS EXPOSURE
  mutagenic call: inactive; negative
Test System: E. COLI, Strain/Indicator: WP2 UVRA, Metabolic Activation: NONE, Method: GAS EXPOSURE
  mutagenic call: active; positive
Test System: E. COLI, Strain/Indicator: WP2 UVRA, Metabolic Activation: RAT, LIVER, S-9, PCB, Method: GAS EXPOSURE
  mutagenic call: inactive; negative
Test System: E. COLI, Strain/Indicator: WP2 UVRA, Metabolic Activation: RAT, LIVER, S-9, PHENOBARBITAL AND 5,6-BENZOFLAVONE, Method: GAS EXPOSURE
  mutagenic call: active; positive
Test System: E.COLI, Strain/Indicator: WP2UVRA, Metabolic Activation: NONE, Method: GAS EXPOSURE
  mutagenic call: active; positive
Test System: E.COLI, Strain/Indicator: WP2UVRA, Metabolic Activation: RAT LIVER S-9, PHENOBARBITAL AND BETA-NAPHTHOFLAVONE, Method: GAS EXPOSURE
  mutagenic call: active; positive
Test System: UDS MOUSE HEPATOCYTES, Strain/Indicator: THY INCORP, Metabolic Activation: NONE, Method: IN VIVO-IN VITRO
  mutagenic call: inactive; negative

## O[C@H]1C=Cc2c(ccc3cc4c(ccc5ccccc54)cc23)[C@@H]1O
Test System: AMES SALMONELLA TYPHIMURIUM, Strain/Indicator: TA100, Metabolic Activation: RAT, LIVER, S-9, AROCLOR 1254, Method: STANDARD PLATE
  mutagenic call: active; positive
